Data on one compound can be found in patent publication US12419619B2, “Aspiration device” (YALE UNIVERSITY, priority 2016, dated 2025).

The structures appear in SMILES notation.

In one assay the test system is stem cells. Conditions: novel dual-lumen device with lidocaine infusion, without pressure modulation; live porcine model, N=4, control single-hole device.
The conditions of assay [1]: intraosseous infusion; cited from earlier work.

Description for stem cells: The colony forming unit (CFU) assay is an accepted measure of relative stem cell concentrations in BMA. […] A preliminary (N=4) trial of BMA in a live porcine model was performed comparing a single-hole cancer aspiration device to the novel dual-lumen BMA method.

Take `CCN(CC)CC(=O)Nc1c(C)cccc1C` [lidocaine]: the “CFU/mL of aspirate versus control” value in the assay with stem cells is on record as “more than doubled”. For the same compound, the whole-bone anesthesia entry in assay [1] was “effective in whole-bone anesthesia”.
